Laboratory results reported in ChEMBL document CHEMBL1138675 (J Med Chem, 2004).
pKi: −log10 of the molar value.

What was measured:
[1] = target: T1, Melatonin receptor type 1A (Homo sapiens, UniProt P48039); test: Binding affinity for human recombinant Melatonin receptor type 1 expressed in NIH3T3 cells; format: cell-based
[2] = target: T2, Melatonin receptor type 1B (Homo sapiens, UniProt P49286); test: Binding affinity for human recombinant Melatonin receptor type 2 expressed in NIH3T3 cells; format: cell-based
T2 sequence (P49286 whole entry): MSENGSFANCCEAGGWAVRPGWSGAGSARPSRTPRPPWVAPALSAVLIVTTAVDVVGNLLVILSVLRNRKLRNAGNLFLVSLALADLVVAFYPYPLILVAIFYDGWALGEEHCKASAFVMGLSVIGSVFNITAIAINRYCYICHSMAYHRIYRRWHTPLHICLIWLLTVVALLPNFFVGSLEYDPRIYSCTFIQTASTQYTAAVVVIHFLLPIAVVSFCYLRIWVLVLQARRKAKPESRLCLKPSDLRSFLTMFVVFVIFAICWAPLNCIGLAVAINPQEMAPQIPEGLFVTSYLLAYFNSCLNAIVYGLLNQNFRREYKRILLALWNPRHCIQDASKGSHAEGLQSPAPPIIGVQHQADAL

[3] = target: T3, Melatonin receptor type 1B (Homo sapiens) (UniProt P49286)
T3 sequence (whole entry): T2 sequence (P49286 whole entry)

[4] = target: T1, Melatonin receptor type 1A

T1 sequence (P48039 whole entry): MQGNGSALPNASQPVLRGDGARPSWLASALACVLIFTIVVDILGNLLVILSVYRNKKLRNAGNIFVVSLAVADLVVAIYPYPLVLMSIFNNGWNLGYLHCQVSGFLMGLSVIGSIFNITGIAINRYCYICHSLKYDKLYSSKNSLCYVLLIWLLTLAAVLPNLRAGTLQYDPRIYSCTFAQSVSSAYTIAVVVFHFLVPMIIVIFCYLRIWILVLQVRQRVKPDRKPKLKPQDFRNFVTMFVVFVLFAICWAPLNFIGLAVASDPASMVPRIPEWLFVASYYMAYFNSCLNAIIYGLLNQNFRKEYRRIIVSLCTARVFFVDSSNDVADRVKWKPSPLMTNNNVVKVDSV

Row | SMILES | pKi [1] | pKi [2] | IAr [3] | IAr [4]
1 | CC(=O)NCC(=O)N1c2ccccc2C=Cc2ccccc21 | 4.69 | 4.96 | – | –
2 | CC(=O)NCC1Cc2ccccc2Cc2ccccc21 (configuration not stated) | 6.62 | 7.52 | -0.32 | 0.03
3 | CC(=O)NCC1=Cc2ccccc2Cc2ccccc21 | 6.26 | 7.07 | -0.09 | 0.02
4 | COc1ccc2c(c1)C(CCNC(C)=O)Cc1ccccc1C2 (configuration not stated) | 6.79 | 7.40 | 0.01 | -0.07
5 | CCC(=O)NCCN1c2ccccc2CCc2ccccc21 | 6.26 | 6.70 | 0.13 | 0.03
6 | CC(=O)NCCC1Cc2ccccc2Cc2ccccc21 (configuration not stated) | 6.41 | 7.05 | 0.69 | 0.21
7 | COc1ccc2[nH]cc(CCNC(C)=O)c2c1 | – | – | – | 1

More lines, now with the values ahead:

Row | pKi [1] | pKi [2] | IAr [3] | IAr [4] | SMILES
8 | 8.21 | 9.18 | -0.55 | -0.18 | COc1ccc2c(c1)C(CNC(C)=O)Cc1ccccc1C2 (configuration not stated)
9 | 8.87 | 9.79 | -0.15 | -0.1 | CCC(=O)NCC1Cc2ccccc2Cc2ccc(OC)cc21 (configuration not stated)
10 | 7.24 | 7.42 | -0.1 | -0.04 | CCC(=O)NCCN1c2ccccc2C=Cc2ccc(OC)cc21
11 | 6.95 | 6.90 | -0.03 | 0.01 | CC(=O)NCCN1c2ccccc2C=Cc2ccccc21
12 | 8.52 | 9.05 | -0.08 | -0.14 | COc1ccc2c(c1)C(CNC(C)=O)Cc1ccccc1C2=O (configuration not stated)
13 | 8.89 | 9.61 | -0.17 | -0.09 | CCCC(=O)NCC1Cc2ccccc2Cc2ccc(OC)cc21 (configuration not stated)
